{"source": "patent US20060069132A1", "about": "“Azolecarboxamide herbicides” (priority 2004, published 2006)", "key": {"[1]": {"tested_on": "yellow nutsedge", "assay": "Test C pre-/postemergence herbicide test", "assay_type": "in vivo, Cyperus esculentus", "summary_of_the_method": "(§1)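 Visual injury scores run from 0 (no effect) to 100 (complete control), assessed relative to untreated controls 12 to 14 days after treatment in the greenhouse. Chemicals were formulated in a non-phytotoxic solvent mixture with surfactant and applied to soil after planting or to emerged plants at the 1- to 4-leaf stage.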"}, "[2]": {"tested_on": "woolly cupgrass", "assay": "Test C pre-/postemergence herbicide test", "assay_type": "in vivo, Eriochloa villosa", "summary_of_the_method": "as §1"}, "[3]": {"tested_on": "giant foxtail", "assay": "Test A pre-/postemergence herbicide test", "assay_type": "in vivo, Setaria faberi", "summary_of_the_method": "(§2)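 Pre: seeded sandy loam, directed soil spray, compound in non-phytotoxic solvent + surfactant. Post: 1–2-leaf plants (2–10 cm), sprayed to runoff. Greenhouse ~10 d; visual injury vs untreated, 0–100 scale.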"}, "[4]": {"tested_on": "lambsquarters", "assay": "Test C pre-/postemergence herbicide test", "assay_type": "in vivo, Chenopodium album", "summary_of_the_method": "as §1"}, "[5]": {"tested_on": "barnyardgrass", "assay": "Test C flooded paddy test", "assay_type": "in vivo, Echinochloa crus-galli", "details": "for Plant response rating, Barnyardgrass: 500 g ai/ha, visual rating after 12 to 14 days", "summary_of_the_method": "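Scoring by eye, 12–14 days post-treatment, greenhouse-held plants vs. controls; 0 no effect, 100 complete control. Sprayed at 1–4 leaves (2–18 cm); paddy barnyardgrass at 2 leaves, flooded.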"}, "[6]": {"tested_on": "johnsongrass", "assay": "Test C pre-/postemergence herbicide test", "assay_type": "in vivo, Sorghum halepense", "summary_of_the_method": "as §1"}, "[7]": {"tested_on": "large crabgrass", "assay": "Test A pre-/postemergence herbicide test", "assay_type": "in vivo, Digitaria sanguinalis", "summary_of_the_method": "as §2"}, "[8]": {"tested_on": "rice", "assay": "Test B pre-/postemergence herbicide test", "assay_type": "in vivo, Oryza sativa", "details": "preemergence", "summary_of_the_method": "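Evaluation is visual, comparing treated with control plants on a scale where 0 means no effect and 100 means full control. Treatments were preemergence, or postemergence on seedlings 2–18 cm tall, and held 13–15 days in the greenhouse.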"}, "[9]": {"tested_on": "redroot pigweed", "assay": "Test A pre-/postemergence herbicide test", "assay_type": "in vivo, Amaranthus retroflexus", "summary_of_the_method": "as §2"}, "[10]": {"details": "62 g ai/ha, preemergence, scale 0 to 100"}, "[11]": {"details": "125 g ai/ha, scale 0 (no effect) to 100 (complete control), visual, 12 to 14 days, preemergence"}, "[12]": {"details": "250 g ai/ha, scale 0-100, preemergence"}, "[13]": {"details": "500 g ai/ha, scale 0 to 100 (0 no effect, 100 complete control), visual, 12 to 14 days, preemergence"}, "[14]": {"details": "Postemergence, 500 g ai/ha, 0 to 100 scale, 0 no effect, 100 complete control"}, "[15]": {"details": "Postemergence, 2000 g ai/ha, 0 to 100 scale, 0 no effect, 100 complete control"}, "[16]": {"details": "Preemergence, 2000 g ai/ha, visual rating, 0 to 100 scale (0 no effect, 100 complete control)"}, "[17]": {"details": "preemergence, 500 g ai/ha, visual injury, 0 to 100 scale (0 no effect, 100 complete control)"}, "[18]": {"details": "62 g ai/ha, scale 0 to 100 (0 no effect, 100 complete control)"}, "[19]": {"details": "250 g ai/ha, scale of 0 to 100, 0 is no effect, 100 is complete control"}, "[20]": {"details": "scale 0 to 100 (0 no effect, 100 complete control)"}, "[21]": {"details": "Postemergence, 500 g ai/ha, scale 0 to 100"}, "[22]": {"details": "Postemergence, 250 g ai/ha, scale 0 to 100, 0 no effect, 100 complete control"}, "[23]": {"details": "Preemergence, 500 g ai/ha, scale 0 to 100, 0 no effect, 100 complete control"}, "[24]": {"details": "postemergence, 125 g ai/ha, scale 0 to 100"}, "[25]": {"details": "postemergence, 62 g ai/ha, scale 0 to 100"}, "[26]": {"details": "Preemergence, 500 g ai/ha, visual rating, 0 to 100 scale (0 no effect, 100 complete control)"}}, "data": [{"smiles": "CCc1nc(C(C)(C)C)sc1C(=O)Nc1cccc(C(=O)NCC2CC2)n1", "note": "[Compound 215]", "values": [{"measurement": "Plant response rating, Nutsedge, Yellow", "setting": "[1]; [10]", "value": 0}, {"measurement": "Plant response rating, Nutsedge, Yellow", "setting": "[1]; [11]", "value": 0}, {"measurement": "Plant response rating, Nutsedge, Yellow", "setting": "[1]; [12]", "value": 0}, {"measurement": "Plant response rating, Nutsedge, Yellow", "setting": "[1]; [13]", "value": 0}, {"measurement": "Plant response rating, Cupgrass, Woolly", "setting": "[2]; [10]", "value": 0}, {"measurement": "Plant response rating, Cupgrass, Woolly", "setting": "[2]; [11]", "value": 10}, {"measurement": "Plant response rating, Cupgrass, Woolly", "setting": "[2]; [12]", "value": 40}, {"measurement": "Plant response rating, Cupgrass, Woolly", "setting": "[2]; [13]", "value": 50}, {"measurement": "Foxtail, Giant plant response rating", "setting": "[3]; [14]", "value": 25}, {"measurement": "Plant response rating, Foxtail, Giant", "setting": "[3]; [15]", "value": 40}, {"measurement": "Foxtail, Giant plant response rating", "setting": "[3]; [16]", "value": 75}, {"measurement": "Foxtail, Giant plant response rating", "setting": "[3]; [17]", "value": 50}, {"measurement": "Plant response rating, Lambsquarters", "setting": "[4]; [10]", "value": 100}, {"measurement": "Plant response rating, Lambsquarters", "setting": "[4]; [11]", "value": 100}, {"measurement": "Plant response rating, Lambsquarters", "setting": "[4]; [12]", "value": 100}, {"measurement": "Plant response rating, Lambsquarters", "setting": "[4]; [13]", "value": 100}, {"measurement": "Barnyardgrass plant response rating", "setting": "[5]; [18]", "value": 0}, {"measurement": "Barnyardgrass plant response rating", "setting": "[5]; 125 g ai/ha, scale 0 to 100 (0 no effect, 100 complete control)", "value": 0}, {"measurement": "Barnyardgrass plant response rating", "setting": "[5]; [19]", "value": 40}, {"measurement": "Plant response rating, Barnyardgrass", "setting": "[5]; [20]", "value": 50}, {"measurement": "Plant response rating, Johnsongrass", "setting": "[6]; [10]", "value": 0}, {"measurement": "Plant response rating, Johnsongrass", "setting": "[6]; [11]", "value": 20}, {"measurement": "Plant response rating, Johnsongrass", "setting": "[6]; [12]", "value": 50}, {"measurement": "Plant response rating, Johnsongrass", "setting": "[6]; [13]", "value": 85}, {"measurement": "Crabgrass, Large plant response rating", "setting": "[7]; [14]", "value": 20}, {"measurement": "Plant response rating, Crabgrass, Large", "setting": "[7]; [15]", "value": 30}, {"measurement": "Crabgrass, Large plant response rating", "setting": "[7]; [16]", "value": 55}, {"measurement": "Crabgrass, Large plant response rating", "setting": "[7]; [17]", "value": 30}, {"measurement": "Rice plant response rating (0 to 100 scale)", "setting": "[8]; 125 g ai/ha, 0 = no effect, 100 = complete control", "value": 0}, {"measurement": "Plant response rating, Rice", "setting": "[8]; 500 g ai/ha, visual rating, 0 = no effect, 100 = complete control", "value": 0}, {"measurement": "Pigweed plant response rating", "setting": "[9]; [14]", "value": 70}, {"measurement": "Plant response rating, Pigweed", "setting": "[9]; [15]", "value": 80}, {"measurement": "Pigweed plant response rating", "setting": "[9]; [16]", "value": 85}, {"measurement": "Pigweed plant response rating", "setting": "[9]; [17]", "value": 30}]}, {"smiles": "CCn1nc(C(C)(C)C)cc1C(=O)Nc1cccc(C(=O)NC2CC2)n1", "note": "[Compound 146]", "values": [{"measurement": "Plant response rating (0 = no effect, 100 = complete control), Nutsedge, Yellow", "setting": "[1]; 62 g ai/ha, preemergence", "value": 0}, {"measurement": "Plant response rating, Nutsedge, Yellow", "setting": "[1]; [11]", "value": 0}, {"measurement": "Nutsedge, Yellow plant response rating", "setting": "[1]; [21]", "value": 0}, {"measurement": "Plant response rating, Nutsedge, Yellow", "setting": "[1]; [22]", "value": 0}, {"measurement": "Nutsedge, Yellow plant response rating", "setting": "[1]; [23]", "value": 0}, {"measurement": "Plant response rating, Nutsedge, Yellow", "setting": "[1]; [24]", "value": 0}, {"measurement": "Plant response rating, Nutsedge, Yellow", "setting": "[1]; [25]", "value": 0}, {"measurement": "Plant response rating (0 = no effect, 100 = complete control), Cupgrass, Woolly", "setting": "[2]; 62 g ai/ha, preemergence", "value": 0}, {"measurement": "Plant response rating, Cupgrass, Woolly", "setting": "[2]; [11]", "value": 0}, {"measurement": "Plant response rating, Cupgrass, Woolly", "setting": "[2]; 250 g ai/ha, scale 0 to 100 (0 no effect, 100 complete control), visual, 12 to 14 days, preemergence", "value": 0}, {"measurement": "Cupgrass, Woolly plant response rating", "setting": "[2]; [21]", "value": 30}, {"measurement": "Plant response rating, Cupgrass, Woolly", "setting": "[2]; [22]", "value": 30}, {"measurement": "Cupgrass, Woolly plant response rating", "setting": "[2]; [23]", "value": 0}, {"measurement": "Plant response rating, Cupgrass, Woolly", "setting": "[2]; [24]", "value": 10}, {"measurement": "Plant response rating, Cupgrass, Woolly", "setting": "[2]; [25]", "value": 10}, {"measurement": "Foxtail, Giant plant response rating", "setting": "[3]; [14]", "value": 15}, {"measurement": "Plant response rating, Foxtail, Giant", "setting": "[3]; [15]", "value": 40}, {"measurement": "Foxtail, Giant plant response rating", "setting": "[3]; [26]", "value": 45}, {"measurement": "Foxtail, Giant plant response rating", "setting": "[3]; [16]", "value": 45}, {"measurement": "Plant response rating (0 = no effect, 100 = complete control), Lambsquarters", "setting": "[4]; 62 g ai/ha, preemergence", "value": 85}, {"measurement": "Plant response rating, Lambsquarters", "setting": "[4]; [11]", "value": 90}, {"measurement": "Lambsquarters plant response rating", "setting": "[4]; [21]", "value": 100}, {"measurement": "Plant response rating, Lambsquarters", "setting": "[4]; [22]", "value": 100}, {"measurement": "Lambsquarters plant response rating", "setting": "[4]; [23]", "value": 100}, {"measurement": "Plant response rating, Lambsquarters", "setting": "[4]; [24]", "value": 80}, {"measurement": "Plant response rating, Lambsquarters", "setting": "[4]; [25]", "value": 40}, {"measurement": "Barnyardgrass plant response rating", "setting": "[5]; [18]", "value": 0}, {"measurement": "Barnyardgrass plant response rating", "setting": "[5]; 125 g ai/ha, scale of 0 to 100, 0 is no effect, 100 is complete control", "value": 0}, {"measurement": "Barnyardgrass plant response rating", "setting": "[5]; [19]", "value": 0}, {"measurement": "Plant response rating, Barnyardgrass", "setting": "[5]; [20]", "value": 20}, {"measurement": "Plant response rating, Johnsongrass", "setting": "[6]; [11]", "value": 30}, {"measurement": "Johnsongrass plant response rating", "setting": "[6]; [21]", "value": 0}, {"measurement": "Plant response rating, Johnsongrass", "setting": "[6]; [22]", "value": 0}, {"measurement": "Johnsongrass plant response rating", "setting": "[6]; [23]", "value": 70}, {"measurement": "Plant response rating, Johnsongrass", "setting": "[6]; [24]", "value": 0}, {"measurement": "Plant response rating, Johnsongrass", "setting": "[6]; [25]", "value": 0}, {"measurement": "Crabgrass, Large plant response rating", "setting": "[7]; [14]", "value": 15}, {"measurement": "Plant response rating, Crabgrass, Large", "setting": "[7]; [15]", "value": 55}, {"measurement": "Crabgrass, Large plant response rating", "setting": "[7]; [26]", "value": 70}, {"measurement": "Crabgrass, Large plant response rating", "setting": "[7]; [16]", "value": 80}, {"measurement": "Plant response rating, Rice", "setting": "[8]; 500 g ai/ha, visual rating 0-100, 0 no effect, 100 complete control", "value": 40}, {"measurement": "Plant response rating, Rice", "setting": "[8]; 125 g ai/ha, 0 to 100 scale, 0 is no effect, 100 is complete control", "value": 10}, {"measurement": "Pigweed plant response rating", "setting": "[9]; [14]", "value": 85}, {"measurement": "Plant response rating, Pigweed", "setting": "[9]; [15]", "value": 100}, {"measurement": "Pigweed plant response rating", "setting": "[9]; [16]", "value": 95}, {"measurement": "Pigweed plant response rating", "setting": "[9]; [17]", "value": 85}]}]}
